How the values were obtained:
human AChE = human AChE (Homo sapiens, UniProt P22303); experiment: Inhibition of human AChE, modified Ellman assay; format: biochemical; details: racemic (±) synthetic compounds
[1] = molecular target: acetyl cholinesterase (AChE) from the housefly (CSMA strain); details: natural product; cited from earlier work
[2] = molecular target: acetyl cholinesterase (AChE) from the brown plant hopper; details: natural product; cited from earlier work

Sequence of human AChE (P22303 32-614): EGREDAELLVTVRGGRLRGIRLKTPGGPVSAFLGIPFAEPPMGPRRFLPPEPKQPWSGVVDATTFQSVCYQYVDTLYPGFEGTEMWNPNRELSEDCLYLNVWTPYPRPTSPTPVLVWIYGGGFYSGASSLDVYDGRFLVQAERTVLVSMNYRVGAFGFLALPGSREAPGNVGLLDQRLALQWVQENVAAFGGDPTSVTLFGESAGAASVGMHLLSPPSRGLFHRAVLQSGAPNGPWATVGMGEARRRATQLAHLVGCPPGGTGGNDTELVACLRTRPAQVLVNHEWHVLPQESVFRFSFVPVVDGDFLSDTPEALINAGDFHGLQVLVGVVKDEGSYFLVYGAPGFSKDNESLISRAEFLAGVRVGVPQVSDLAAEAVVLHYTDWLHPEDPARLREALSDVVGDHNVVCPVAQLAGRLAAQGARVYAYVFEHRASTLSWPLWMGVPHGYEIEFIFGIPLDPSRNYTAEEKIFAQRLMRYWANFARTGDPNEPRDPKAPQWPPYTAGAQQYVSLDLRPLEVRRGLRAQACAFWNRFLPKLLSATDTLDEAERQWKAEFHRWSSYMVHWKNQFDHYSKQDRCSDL

Compound: CO[P@]1(=O)OC[C@H]2COC(=O)C2=C(C)O1 [compound 1, Cyclophostin]
- IC50 (human AChE): ~40 nM
- IC50 [1]: 0.76 nM
- IC50 [2]: 0.76 nM

— article PMC3129627 (Organic letters, 2011)
